Reference: patent US11718612B2, “Inhibitors of receptor interacting protein kinase I for the treatment of disease” (Board of Regents, The University of Texas System, priority 2019, dated 2023)
pIC50: −log10 of the molar value.

How the values were obtained:
[1] = system: U937 cells; test: Human U937 cellular necroptosis assay; type: cell-based; conditions: U-937; U937 cells stimulated with 25 ng/mL human TNFalpha and 25 μM z-VAD-FMK; 22 hr; Cell Titer-Glo viability
[2] = biological target: RIPK1 (Homo sapiens (Human), UniProt Q13546); test: ADP-Glo kinase assay, RIPK1 activity; type: biochemical; conditions: 5 nM RIPK1, 50 μM ATP, 6 hr reaction
Chain of RIPK1 (Q13546 1-327): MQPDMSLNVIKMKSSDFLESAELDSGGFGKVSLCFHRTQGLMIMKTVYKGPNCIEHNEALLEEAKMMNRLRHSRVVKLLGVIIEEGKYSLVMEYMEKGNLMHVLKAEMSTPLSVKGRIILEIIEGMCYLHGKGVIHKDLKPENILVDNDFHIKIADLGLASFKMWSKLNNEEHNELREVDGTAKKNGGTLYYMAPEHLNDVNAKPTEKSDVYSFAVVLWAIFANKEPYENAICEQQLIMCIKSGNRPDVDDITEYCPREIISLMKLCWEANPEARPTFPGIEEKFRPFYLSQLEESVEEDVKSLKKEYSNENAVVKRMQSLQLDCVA
Procedure: In order to measure RIPK1 activity the ADP-Glo kinase assay (Promega, Catalog #V7002) was used to measure the conversion of ATP to ADP. This enzymatic assay was performed in a 384-well white, Optiplate (Perkin Elmer, Catalog #6007299) with assay buffer consisting of 50 mM HEPES pH 7.5 (Gibco, Catalog #15630-080), 50 mM NaCl (Teknova, Catalog #S0252), 30 mM MgCl2 (Ambion, Catalog #AM9530G), 1 mM DTT (Santa Cruz Biotechnology, Catalog #sc-29089), 0.05% BSA (Sigma, Catalog #A3059-50G) and 0.02% CHAPS (Sigma, Catalog #C5070-5G). Stock solutions of the test compounds were prepared in 100% DMSO (Sigma, Catalog #D2650) and serially diluted 1:3 using 100% DMSO. Compounds were additionally diluted 1:40 in assay buffer, and 2 μL/well were transferred to the assay plate. 4 μL/well (final concentration of 5 nM) of RIPK1 protein (SignalChem, Catalog #R07-11G-05) diluted in assay buffer and added to the assay plate followed by a 10 minute preincutation at room temperature. 4 μL/well of ATP (Promega, Catalog #V7002) (final concentration of 50 μM) diluted in assay buffer were then added to the assay plate followed by a 6 hr reaction time. Final concentrations of RIPK1 and ATP refer to a 10 μL volume. Luminescence was measured using a BioTek Synergy™ NEO plate reader. IC50 values were calculated using a four-parameter logistic curve fit using Genedata Screener software.

SMILES	IC50 [1]	pIC50 [2]
Cc1nc(C(=O)Nc2ccc(OC(F)(F)F)cc2)nn1Cc1ccccc1 [Example 52, 1-benzyl-5-methyl-N-(4-(trifluoromethoxy)-phenyl)-1H-1,2,4-triazole-3-carboxamide]	> 10000 nM	5.33
O=C1c2nn(Cc3cncc(F)c3)c(Cl)c2CCN1c1cccc(Cl)c1F [Example 54, 3-Chloro-6-(3-chloro-2-fluorophenyl)-2-((5-fluoropyridin-3-yl)methyl)-5,6-dihydro-2H-pyrazolo[3,4-c]pyridin-7(4H)-one]	128 nM	6.88
COc1c2c(nn1Cc1cc(F)ccc1F)C(=O)N(c1cccc(Cl)c1F)CC2 [Example 57, 6-(3-Chloro-2-fluorophenyl)-2-(2,5-difluorobenzyl)-3-methoxy-5,6-dihydro-2H-pyrazolo[3,4-c]pyridin-7(4H)-one]	115 nM	7.66
NC(=O)c1cccc(Cn2nc3c(c2Cl)CCN(c2cccc(Cl)c2F)C3=O)c1 [Example 75, 3-((3-chloro-6-(3-chloro-2-fluorophenyl)-7-oxo-4,5,6,7-tetrahydro-2H-pyrazolo[3,4-c]pyridin-2-yl)methyl)benzamide]	1160 nM	6.53
Cc1ccc(Cn2cnc(C(=O)Nc3cccc(Cl)c3F)n2)cc1 [Example 86, N-(3-chloro-2-fluorophenyl)-1-(4-methylbenzyl)-1H-1,2,4-triazole-3-carboxamide]	2080 nM	6.25
Cc1ccc(Cn2cnc(C(=O)Nc3cccc(Cl)c3F)n2)cc1F [Example 87, N-(3-chloro-2-fluorophenyl)-1-(3-fluoro-4-methylbenzyl)-1H-1,2,4-triazole-3-carboxamide]	4300 nM	7.49
O=C(Nc1cccc(Cl)c1F)c1ncn(Cc2cccc(F)c2)n1 [Example 88, N-(3-chloro-2-fluorophenyl)-1-(3-fluorobenzyl)-1H-1,2,4-triazole-3-carboxamide]	872 nM	7.44
O=C(Nc1cccc(Cl)c1F)c1ncn(Cc2ccc(F)cn2)n1 [Example 89, N-(3-chloro-2-fluorophenyl)-1-((5-fluoropyridin-2-yl)methyl)-1H-1,2,4-triazole-3-carboxamide]	5580 nM	5.80
Cc1ccc(Cn2cnc(C(=O)Nc3cccc(Cl)c3F)n2)cn1 [Example 90]	2600 nM	5.84
O=C(Nc1cccc2nn[nH]c12)c1ncn(Cc2ccccc2)n1 [Example 100, N-(1H-benzo[d][1,2,3]triazol-7-yl)-1-benzyl-1H-1,2,4-triazole-3-carboxamide]	4140 nM	6.16
O=C1c2nn(Cc3cc(F)ccc3F)c(Br)c2CCN1c1cccc(Cl)c1F [Example 101, 3-Bromo-6-(3-chloro-2-fluorophenyl)-2-(2,5-difluorobenzyl)-2,4,5,6-tetrahydro-7H-pyrazolo[3,4-c]pyridin-7-one]	16.2 nM	7.76
O=C(Nc1cccc(Cl)c1F)c1ncn(Cc2ncccc2F)n1 [Example 102, N-(3-chloro-2-fluorophenyl)-1-((3-fluoropyridin-2-yl)methyl)-1H-1,2,4-triazole-3-carboxamide]	1260 nM	6.71
